How the values were obtained:
Type in all cases: cell-based
Conditions in all cases: 24 hours of compound treatment
GSPT1 = biological target: T1, GSPT1 (Homo sapiens, UniProt P15170+Q96SW2); assay: Western-blot assay of substrate protein degradation in hPBMCs, GSPT1
T1 construct: endogenous in cells; host or cells: hPBMCs (Milecell Biotechnologies)

IKZF3 = biological target: T2, IKZF3 (Homo sapiens, UniProt Q96SW2+Q9UKT9); assay: Western-blot assay of substrate protein degradation in hPBMCs, IKZF3
T2 construct: endogenous in cells; host or cells: hPBMCs (Milecell Biotechnologies)
T2 sequence (Q9UKT9 whole entry): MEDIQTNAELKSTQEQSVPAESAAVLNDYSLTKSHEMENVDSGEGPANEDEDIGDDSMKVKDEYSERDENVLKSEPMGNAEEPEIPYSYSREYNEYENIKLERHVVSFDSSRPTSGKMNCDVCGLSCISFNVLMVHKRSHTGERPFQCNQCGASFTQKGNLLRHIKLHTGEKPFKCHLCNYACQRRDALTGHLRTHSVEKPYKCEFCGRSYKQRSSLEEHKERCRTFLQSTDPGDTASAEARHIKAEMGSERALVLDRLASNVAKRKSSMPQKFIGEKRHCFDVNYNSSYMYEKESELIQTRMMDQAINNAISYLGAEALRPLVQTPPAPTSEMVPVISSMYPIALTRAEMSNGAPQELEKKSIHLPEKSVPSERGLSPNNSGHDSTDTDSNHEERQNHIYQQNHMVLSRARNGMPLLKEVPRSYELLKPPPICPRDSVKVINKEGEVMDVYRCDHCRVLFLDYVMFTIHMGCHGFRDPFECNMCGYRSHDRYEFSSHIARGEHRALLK
T2 sequence (Q96SW2 whole entry): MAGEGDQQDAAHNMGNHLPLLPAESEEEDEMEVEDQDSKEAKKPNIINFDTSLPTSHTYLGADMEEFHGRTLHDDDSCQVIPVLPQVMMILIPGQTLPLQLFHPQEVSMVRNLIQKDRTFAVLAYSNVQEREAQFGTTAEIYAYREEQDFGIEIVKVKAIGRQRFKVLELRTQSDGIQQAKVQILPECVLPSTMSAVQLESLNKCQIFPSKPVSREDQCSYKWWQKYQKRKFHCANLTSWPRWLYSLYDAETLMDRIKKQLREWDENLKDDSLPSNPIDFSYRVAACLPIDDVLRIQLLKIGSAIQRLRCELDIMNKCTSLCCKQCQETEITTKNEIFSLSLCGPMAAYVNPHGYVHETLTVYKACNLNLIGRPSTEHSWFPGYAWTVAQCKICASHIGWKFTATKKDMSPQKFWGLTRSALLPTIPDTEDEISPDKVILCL
T2 sequence (Q16531 whole entry partner): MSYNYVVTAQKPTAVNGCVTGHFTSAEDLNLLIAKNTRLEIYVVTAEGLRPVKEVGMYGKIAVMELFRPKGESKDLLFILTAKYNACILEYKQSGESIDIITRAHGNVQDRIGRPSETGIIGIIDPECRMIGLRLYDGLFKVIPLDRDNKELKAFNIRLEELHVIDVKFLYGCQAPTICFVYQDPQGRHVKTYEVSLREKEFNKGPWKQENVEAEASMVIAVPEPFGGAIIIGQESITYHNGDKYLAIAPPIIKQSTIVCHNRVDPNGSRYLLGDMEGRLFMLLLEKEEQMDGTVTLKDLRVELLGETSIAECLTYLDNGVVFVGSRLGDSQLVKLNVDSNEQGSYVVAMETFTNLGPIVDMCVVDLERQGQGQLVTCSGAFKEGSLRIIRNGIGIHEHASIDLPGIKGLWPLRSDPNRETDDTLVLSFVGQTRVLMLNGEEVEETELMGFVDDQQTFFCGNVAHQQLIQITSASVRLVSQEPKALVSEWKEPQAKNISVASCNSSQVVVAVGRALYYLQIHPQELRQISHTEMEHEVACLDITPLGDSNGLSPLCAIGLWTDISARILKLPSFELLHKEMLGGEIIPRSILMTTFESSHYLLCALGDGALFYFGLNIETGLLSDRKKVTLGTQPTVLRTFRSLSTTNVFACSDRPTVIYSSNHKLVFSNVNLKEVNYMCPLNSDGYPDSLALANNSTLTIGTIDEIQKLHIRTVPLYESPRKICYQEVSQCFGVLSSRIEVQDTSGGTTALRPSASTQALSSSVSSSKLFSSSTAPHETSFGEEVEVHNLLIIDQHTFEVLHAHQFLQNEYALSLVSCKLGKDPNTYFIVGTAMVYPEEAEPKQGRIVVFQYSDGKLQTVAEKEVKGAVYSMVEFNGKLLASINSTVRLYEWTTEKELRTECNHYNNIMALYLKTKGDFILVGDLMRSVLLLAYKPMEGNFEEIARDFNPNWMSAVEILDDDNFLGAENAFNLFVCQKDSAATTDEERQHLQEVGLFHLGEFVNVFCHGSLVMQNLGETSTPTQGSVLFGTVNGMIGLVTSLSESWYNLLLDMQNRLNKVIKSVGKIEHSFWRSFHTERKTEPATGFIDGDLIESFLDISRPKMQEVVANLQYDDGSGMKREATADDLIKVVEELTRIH

IKZF2 = biological target: T3, IKZF2 (Homo sapiens, UniProt Q96SW2+Q9UKS7); assay: Western-blot assay of substrate protein degradation in hPBMCs, IKZF2
T3 construct: endogenous in cells; host or cells: hPBMCs (Milecell Biotechnologies)
T3 sequence (Q9UKS7 whole entry): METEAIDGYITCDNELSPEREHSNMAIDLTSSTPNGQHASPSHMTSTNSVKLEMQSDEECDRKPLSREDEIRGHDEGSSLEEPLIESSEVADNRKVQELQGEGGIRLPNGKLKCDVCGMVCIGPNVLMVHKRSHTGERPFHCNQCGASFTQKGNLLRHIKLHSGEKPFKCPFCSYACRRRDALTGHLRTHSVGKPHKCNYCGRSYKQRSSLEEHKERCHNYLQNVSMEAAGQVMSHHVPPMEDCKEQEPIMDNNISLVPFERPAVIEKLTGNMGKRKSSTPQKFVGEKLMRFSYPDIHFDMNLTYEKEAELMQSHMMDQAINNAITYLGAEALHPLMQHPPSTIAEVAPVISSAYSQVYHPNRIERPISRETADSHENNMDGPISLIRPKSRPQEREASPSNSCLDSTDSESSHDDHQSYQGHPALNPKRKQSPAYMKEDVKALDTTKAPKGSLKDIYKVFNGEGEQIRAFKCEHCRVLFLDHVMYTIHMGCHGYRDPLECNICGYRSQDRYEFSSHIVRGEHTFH
T3 sequence (Q96SW2 whole entry): as the sequence (Q96SW2 whole entry) above
T3 sequence (Q16531 whole entry partner): as the sequence (Q16531 whole entry partner) above

CK1α = biological target: T4, CK1α (Homo sapiens, UniProt P48729+Q96SW2); assay: Western-blot assay of substrate protein degradation in hPBMCs, CK1α
T4 construct: endogenous in cells; host or cells: hPBMCs (Milecell Biotechnologies)
T4 sequence (P48729 whole entry): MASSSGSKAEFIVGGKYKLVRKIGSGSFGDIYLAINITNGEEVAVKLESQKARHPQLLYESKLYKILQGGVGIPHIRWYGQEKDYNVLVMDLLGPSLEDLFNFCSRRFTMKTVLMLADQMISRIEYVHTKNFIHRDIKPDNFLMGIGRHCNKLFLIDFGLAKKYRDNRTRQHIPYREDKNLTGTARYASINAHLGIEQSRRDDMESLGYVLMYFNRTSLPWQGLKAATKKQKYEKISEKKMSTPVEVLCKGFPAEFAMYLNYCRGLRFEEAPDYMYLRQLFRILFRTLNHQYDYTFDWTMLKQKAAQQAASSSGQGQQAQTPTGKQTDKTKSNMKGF
T4 sequence (Q96SW2 whole entry): as the sequence (Q96SW2 whole entry) above
T4 sequence (Q16531 whole entry partner): as the sequence (Q16531 whole entry partner) above

IKZF1 = biological target: T5, IKZF1 (Homo sapiens, UniProt Q13422+Q96SW2); assay: Western-blot assay of substrate protein degradation in hPBMCs, IKZF1
T5 construct: endogenous in cells; host or cells: hPBMCs (Milecell Biotechnologies)
T5 sequence (Q13422 whole entry): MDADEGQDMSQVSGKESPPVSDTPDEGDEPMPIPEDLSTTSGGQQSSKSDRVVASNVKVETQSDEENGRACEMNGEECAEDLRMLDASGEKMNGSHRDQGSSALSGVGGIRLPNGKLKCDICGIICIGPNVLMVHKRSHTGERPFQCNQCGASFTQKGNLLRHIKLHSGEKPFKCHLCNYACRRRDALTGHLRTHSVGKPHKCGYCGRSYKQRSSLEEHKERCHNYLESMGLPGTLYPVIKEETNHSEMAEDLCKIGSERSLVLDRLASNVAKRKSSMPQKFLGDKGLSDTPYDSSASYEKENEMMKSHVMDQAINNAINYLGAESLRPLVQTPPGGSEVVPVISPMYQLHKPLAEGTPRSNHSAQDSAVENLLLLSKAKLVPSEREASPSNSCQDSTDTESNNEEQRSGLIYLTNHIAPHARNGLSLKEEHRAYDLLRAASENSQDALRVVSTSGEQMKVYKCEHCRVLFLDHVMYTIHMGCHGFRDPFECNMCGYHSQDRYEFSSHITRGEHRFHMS
T5 sequence (Q96SW2 whole entry): as the sequence (Q96SW2 whole entry) above
T5 sequence (Q16531 whole entry partner): as the sequence (Q16531 whole entry partner) above

WEE1 = biological target: T6, WEE1 (Homo sapiens, UniProt P30291+Q96SW2); assay: Western-blot assay of substrate protein degradation in hPBMCs, WEE1
T6 construct: endogenous in cells; host or cells: hPBMCs (Milecell Biotechnologies)
T6 sequence (P30291 whole entry): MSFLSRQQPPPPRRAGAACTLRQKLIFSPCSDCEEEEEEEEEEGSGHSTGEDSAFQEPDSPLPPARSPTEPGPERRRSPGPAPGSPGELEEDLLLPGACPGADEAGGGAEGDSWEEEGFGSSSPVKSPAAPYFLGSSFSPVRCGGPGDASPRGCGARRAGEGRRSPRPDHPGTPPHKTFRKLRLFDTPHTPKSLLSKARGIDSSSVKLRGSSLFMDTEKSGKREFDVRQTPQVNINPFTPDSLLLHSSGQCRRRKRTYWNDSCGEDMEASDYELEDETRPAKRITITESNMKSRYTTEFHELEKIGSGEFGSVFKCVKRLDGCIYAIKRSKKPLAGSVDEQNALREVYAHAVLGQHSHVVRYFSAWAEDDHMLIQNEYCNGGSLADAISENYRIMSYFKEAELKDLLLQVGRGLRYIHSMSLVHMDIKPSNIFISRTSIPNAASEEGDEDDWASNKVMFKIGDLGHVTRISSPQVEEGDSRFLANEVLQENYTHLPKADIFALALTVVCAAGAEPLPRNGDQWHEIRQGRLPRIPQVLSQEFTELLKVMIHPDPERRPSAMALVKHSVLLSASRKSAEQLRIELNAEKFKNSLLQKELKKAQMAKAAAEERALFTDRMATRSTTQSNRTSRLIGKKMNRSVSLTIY
T6 sequence (Q96SW2 whole entry): as the sequence (Q96SW2 whole entry) above
T6 sequence (Q16531 whole entry partner): as the sequence (Q16531 whole entry partner) above

[1] = 50 nM and 500 nM tested (concentration behind the class not stated)
[2] = compounds tested at 50 nM and 500 nM (concentration of the table not stated)

Structure (SMILES)	GSPT1 substrate protein remaining % (GSPT1; [1])	IKZF3 substrate protein remaining % (IKZF3; [1])	IKZF2 substrate protein remaining % (IKZF2; [1])	CK1a substrate protein remaining % (CK1α; [1])	IKZF 1 substrate protein remaining % (IKZF1; [1])	Weel substrate protein remaining % (WEE1; [1])	GSPT1 substrate protein remaining % (GSPT1; [2])	IKZF3 substrate protein remaining % (IKZF3; [2])	IKZF2 substrate protein remaining % (IKZF2; [2])	CK1a substrate protein remaining % (CK1α; [2])	IKZF 1 substrate protein remaining % (IKZF1; [2])	Weel substrate protein remaining % (WEE1; [2])
O=C1CCC(N2C(=O)c3ccc(CN4CCC(c5ccnc(F)c5F)CC4)cc3C2=O)C(=O)N1 (stereo not drawn) [GT-06613, 5-((4-(2,3-difluoropyridin-4-yl)piperidin-1-yl)methyl)-2-(2,6-dioxopiperidin-3-yl)isoindoline-1,3-dione]	A (0% ≤ substrate protein remaining % ≤ 80%)	B (80%< substrate protein remaining %≤ 100%)	B (80%< substrate protein remaining %≤ 100%)	B (80%< substrate protein remaining %≤ 100%)	B (80%< substrate protein remaining %≤ 100%)	B (80%< substrate protein remaining %≤ 100%)	–	–	–	–	–	–
O=C1CCC(N2C(=O)c3ccc(CN4CCN(c5ccc(Cl)cc5)CC4)cc3C2=O)C(=O)N1 (stereo not drawn) [GT-06275, 5-((4-(4-chlorophenyl)piperazin-1-yl)methyl)-2-(2,6-dioxopiperidin-3-yl)isoindoline-1,3-dione]	A (0% ≤ substrate protein remaining % ≤ 80%)	B (80%< substrate protein remaining %≤ 100%)	B (80%< substrate protein remaining %≤ 100%)	B (80%< substrate protein remaining %≤ 100%)	B (80%< substrate protein remaining %≤ 100%)	B (80%< substrate protein remaining %≤ 100%)	–	–	–	–	–	–
O=C1CCC(N2C(=O)c3ccc(CN4CC=C(c5cccc(F)c5Cl)CC4)cc3C2=O)C(=O)N1 (stereo not drawn) [GT-06429, 5-((4-(2-chloro-3-fluorophenyl)-3,6-dihydropyridin-1(2H)-yl)methyl)-2-(2,6-dioxopiperidin-3-yl)isoindoline-1,3-dione]	A (0% ≤ substrate protein remaining % ≤ 80%)	A (0% ≤ substrate protein remaining % ≤ 80%)	A (0% ≤ substrate protein remaining % ≤ 80%)	A (0% ≤ substrate protein remaining % ≤ 80%)	A (0% ≤ substrate protein remaining % ≤ 80%)	A (0% ≤ substrate protein remaining % ≤ 80%)	–	–	–	–	–	–
O=C1CCC(N2C(=O)c3ccc(CN4CCN(c5noc6cc(F)ccc56)CC4)cc3C2=O)C(=O)N1 (stereo not drawn) [GT-06629, 2-(2,6-dioxopiperidin-3-yl)-5-((4-(6-fluorobenzo[d]isoxazol-3-yl)piperazin-1-yl)methyl)isoindoline-1,3-dione]	A (0% ≤ substrate protein remaining % ≤ 80%)	B (80%< substrate protein remaining %≤ 100%)	A (0% ≤ substrate protein remaining % ≤ 80%)	A (0% ≤ substrate protein remaining % ≤ 80%)	B (80%< substrate protein remaining %≤ 100%)	A (0% ≤ substrate protein remaining % ≤ 80%)	–	–	–	–	–	–
O=C1CCC(N2C(=O)c3ccc(CN4CCN(c5ccnc(Cl)c5Cl)CC4)cc3C2=O)C(=O)N1 (stereo not drawn) [GT-06534, 5-((4-(2,3-dichloropyridin-4-yl)piperazin-1-yl)methyl)-2-(2,6-dioxopiperidin-3-yl)isoindoline-1,3-dione]	A (0% ≤ substrate protein remaining % ≤ 80%)	B (80%< substrate protein remaining %≤ 100%)	B (80%< substrate protein remaining %≤ 100%)	B (80%< substrate protein remaining %≤ 100%)	B (80%< substrate protein remaining %≤ 100%)	B (80%< substrate protein remaining %≤ 100%)	–	–	–	–	–	–
O=C1CCC(N2C(=O)c3ccc(CN4CC=C(c5ccnc6cc(F)ccc56)CC4)cc3C2=O)C(=O)N1 (stereo not drawn) [GT-06267, 2-(2,6-dioxopiperidin-3-yl)-5-((4-(7-fluoroquinolin-4-yl)-3,6-dihydropyridin-1(2H)-yl)methyl)isoindoline-1,3-dione]	–	–	–	–	–	–	A (0% ≤ substrate protein remaining % ≤ 80%)	A (0% ≤ substrate protein remaining % ≤ 80%)	A (0% ≤ substrate protein remaining % ≤ 80%)	A (0% ≤ substrate protein remaining % ≤ 80%)	B (80%< substrate protein remaining %≤ 100%)	A (0% ≤ substrate protein remaining % ≤ 80%)
O=C1CCC(N2C(=O)c3ccc(CN4CCC(c5cccs5)CC4)cc3C2=O)C(=O)N1 (stereo not drawn) [GT-06224, 2-(2,6-dioxopiperidin-3-yl)-5-((4-(thiophen-2-yl)piperidin-1-yl)methyl)isoindoline-1,3-dione]	A (0% ≤ substrate protein remaining % ≤ 80%)	A (0% ≤ substrate protein remaining % ≤ 80%)	B (80%< substrate protein remaining %≤ 100%)	A (0% ≤ substrate protein remaining % ≤ 80%)	A (0% ≤ substrate protein remaining % ≤ 80%)	A (0% ≤ substrate protein remaining % ≤ 80%)	–	–	–	–	–	–
O=C1CCC(N2C(=O)c3ccc(CN4CCC(c5cccc(F)c5F)CC4)cc3C2=O)C(=O)N1 (stereo not drawn) [GT-06359, 5-((4-(2,3-difluorophenyl)piperidin-1-yl)methyl)-2-(2,6-dioxopiperidin-3-yl)isoindoline-1,3-dione]	A (0% ≤ substrate protein remaining % ≤ 80%)	B (80%< substrate protein remaining %≤ 100%)	A (0% ≤ substrate protein remaining % ≤ 80%)	B (80%< substrate protein remaining %≤ 100%)	A (0% ≤ substrate protein remaining % ≤ 80%)	A (0% ≤ substrate protein remaining % ≤ 80%)	–	–	–	–	–	–
O=C1CCC(N2C(=O)c3ccc(CN4CCC(c5ccoc5)CC4)cc3C2=O)C(=O)N1 (stereo not drawn) [GT-06285, 2-(2,6-dioxopiperidin-3-yl)-5-((4-(furan-3-yl)piperidin-1-yl)methyl)isoindoline-1,3-dione]	A (0% ≤ substrate protein remaining % ≤ 80%)	B (80%< substrate protein remaining %≤ 100%)	B (80%< substrate protein remaining %≤ 100%)	B (80%< substrate protein remaining %≤ 100%)	B (80%< substrate protein remaining %≤ 100%)	B (80%< substrate protein remaining %≤ 100%)	–	–	–	–	–	–
O=C1CCC(N2C(=O)c3ccc(CN4CCN(c5cnccn5)CC4)cc3C2=O)C(=O)N1 (stereo not drawn) [GT-07060, 2-(2,6-dioxopiperidin-3-yl)-5-((4-(pyrazin-2-yl)piperazin-1-yl)methyl)isoindoline-1,3-dione]	A (0% ≤ substrate protein remaining % ≤ 80%)	A (0% ≤ substrate protein remaining % ≤ 80%)	A (0% ≤ substrate protein remaining % ≤ 80%)	A (0% ≤ substrate protein remaining % ≤ 80%)	A (0% ≤ substrate protein remaining % ≤ 80%)	A (0% ≤ substrate protein remaining % ≤ 80%)	–	–	–	–	–	–
O=C1CCC(N2C(=O)c3ccc(CN4CCN(c5ncnc6sc(-c7ccccc7)cc56)CC4)cc3C2=O)C(=O)N1 (stereo not drawn) [GT-06310, 2-(2,6-dioxopiperidin-3-yl)-5-((4-(6-phenylthieno[2,3-d]pyrimidin-4-yl)piperazin-1-yl)methyl)isoindoline-1,3-dione]	A (0% ≤ substrate protein remaining % ≤ 80%)	A (0% ≤ substrate protein remaining % ≤ 80%)	A (0% ≤ substrate protein remaining % ≤ 80%)	A (0% ≤ substrate protein remaining % ≤ 80%)	B (80%< substrate protein remaining %≤ 100%)	B (80%< substrate protein remaining %≤ 100%)	–	–	–	–	–	–
O=C1CCC(N2C(=O)c3ccc(CN4CCN(c5ccccc5Br)CC4)cc3C2=O)C(=O)N1 (stereo not drawn) [GT-06293, 5-((4-(2-bromophenyl)piperazin-1-yl)methyl)-2-(2,6-dioxopiperidin-3-yl)isoindoline-1,3-dione]	A (0% ≤ substrate protein remaining % ≤ 80%)	B (80%< substrate protein remaining %≤ 100%)	B (80%< substrate protein remaining %≤ 100%)	B (80%< substrate protein remaining %≤ 100%)	B (80%< substrate protein remaining %≤ 100%)	B (80%< substrate protein remaining %≤ 100%)	–	–	–	–	–	–
